Data published in patent publication US20260285932A1, “PEPTIDE TYROSINE-TYROSINE ANALOG AND USE THEREOF” (THE UNITED BIO-TECHNOLOGY (HENGQIN) CO., LTD., priority 2023, published 2026).
Each block holds one substance with its values, some of them ahead of it.

Assays:
[1] = target: T1, recombinant human NPY2 receptor (Homo sapiens, UniProt P49146); test: cAMP assay, in vitro functional activity on NPY2 receptors; format: cell-based; conditions: inhibition of Forskolin-induced cAMP in HEK 293 cells overexpressing hNPY2R; average, at least 3 independent tests
T1 construct: expressed in transfected cells; host or cells: HEK 293
T1 sequence (P49146 1-381): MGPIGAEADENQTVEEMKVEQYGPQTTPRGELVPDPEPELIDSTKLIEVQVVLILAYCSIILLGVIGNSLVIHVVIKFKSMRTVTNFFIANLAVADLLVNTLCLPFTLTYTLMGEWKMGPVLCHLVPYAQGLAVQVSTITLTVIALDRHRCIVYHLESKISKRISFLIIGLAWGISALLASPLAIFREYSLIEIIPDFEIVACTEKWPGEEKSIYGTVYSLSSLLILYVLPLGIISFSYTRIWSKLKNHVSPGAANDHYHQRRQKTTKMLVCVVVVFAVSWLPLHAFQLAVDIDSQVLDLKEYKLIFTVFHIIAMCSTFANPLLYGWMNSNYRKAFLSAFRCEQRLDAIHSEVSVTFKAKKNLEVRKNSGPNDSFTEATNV
Experimental: 2) Preparation of cells: the cultured cells were collected into a 15 mL sterile centrifuge tube, and centrifuged at 1000 rpm for 5 minutes, with the supernatant being discarded. 10 mL of 1×PBS was added, mixed gently, and centrifuged at 1000 rpm for 5 minutes, with the supernatant being discarded.
4) According to the arrangement order of Map analogues, 100 nL of prepared analogues were added to a 384-well cell reaction plate using Echo. After addition, they were centrifuged at 1000 rpm for 1 minute.
5) 5 μL of 2 μM Forskolin (prepared with detection buffer) was added to a 384-well cell reaction plate using Multidrop Combi and centrifuged at 1000 rpm for 1 minute. 5 μL of detection buffer containing cells was added to a 384-well reaction plate, ensuring a cell count of 3000 cells per well.
6) 10 μL cAMP detection reagent solution (1×cell lysis buffer 9.5 mL, 1×D2-cAMP solution, 1×cAMP-antibody) was added to the corresponding wells of the cell reaction plate using Multidrop Combi. It was covered with a lid and incubated at room temperature in the dark for 1 hour.
7) After incubation for 1 hour, it was placed in an EnVision microplate reader for measurement.

[2] = target: T2, human NPY1 receptor (hNPY1R) (Homo sapiens, UniProt P25929); test: calcium flux (FLIPR) assay, functional activity on human NPY1 receptor; format: cell-based; conditions: average, at least 3 independent tests
T2 construct: expressed in transfected cells
T2 sequence (P25929 1-384): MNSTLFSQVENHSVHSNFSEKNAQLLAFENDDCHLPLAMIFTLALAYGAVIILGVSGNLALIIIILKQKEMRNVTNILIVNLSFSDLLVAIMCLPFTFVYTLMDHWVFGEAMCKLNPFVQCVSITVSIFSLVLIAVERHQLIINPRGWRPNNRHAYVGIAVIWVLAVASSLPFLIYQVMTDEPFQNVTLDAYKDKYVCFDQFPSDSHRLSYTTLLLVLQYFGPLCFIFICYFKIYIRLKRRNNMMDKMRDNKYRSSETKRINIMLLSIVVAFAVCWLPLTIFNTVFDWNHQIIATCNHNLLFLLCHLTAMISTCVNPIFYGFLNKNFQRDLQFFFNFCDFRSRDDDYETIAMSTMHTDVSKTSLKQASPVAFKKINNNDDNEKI
Experimental: (§3) 1) Preheated the culture medium, 1×DPBS and 0.05% trypsin EDTA in a 37° C. water bath for more than 30 minutes in advance, and ready for use.
(§4) 3) Cultured cells were taken out from the incubator, added with 1×DPBS, incubated for a moment, suctioned to remove DPBS, added with an appropriate amount of 0.05% trypsin-EDTA for cell digestion, digestion terminated with 10% FBS medium, and dispersed the cells.
(§5) 4) The dispersed cells were transferred into a 50 mL centrifuge tube using a pipette, centrifuged at 1000 rpm for 5 minutes, resuspended in culture medium, dispersed, and counted.
(§6) 5) The cells were diluted with culture medium to 1×10^6 cells/mL, and inoculated at a volume of 20 μL/well of cells onto 384-well poly-Lysine-coated cell plates.
(§7) 6) The cells were incubated overnight at 37° C. in an incubator with 5% CO2. […]
(§8) 4) The calcium ion activation rate was calculated for each well: % Activity=(signal value of sample well-average signal value of low-signal control well)/(average signal value of high-signal control well-average signal value of low-signal control well). Using the logarithm of the concentration of analogues as the horizontal axis and the activation rate of calcium ion fluorescence signal as the vertical axis, the “Nonlinear regression (curve fit)-log (antigen) vs. response Variable slope” model in GraphPad Prism 5.0 was used for fitting to calculate the EC50 of the sample.

[3] = food intake and body weight of normal mice after a single subcutaneous injection; format: in vivo; conditions: C57BL/6 mice, over 3 days; for Body weight changes: vs baseline
Experimental: 6-8 weeks old male C57BL/6 mice were fed in animal feeding rooms with strictly controlled environmental conditions, the temperature in the feeding room was maintained at 20° C.-24° C. and the humidity was maintained at 30%-70%. The light cycle in the animal feeding room was 12 hours (starting at 7:00 am and ending at 7:00 pm). During the experiment, animals were kept in single cages and toys were provided in each cage. During the experiment, animals were free to consume food (growth/reproduction feed for mice and rats) and water.
Body weight without fasting and initial food weight before administration were recorded, and the animals were administered with a single subcutaneous injection, and the daily body weight and food intake weight were recorded for 3 days after administration. The activity, water intake, diet, and body weight changes of animals were observed every day. The changes in body weight and food intake weight were calculated compared to the baseline levels of each group (the initial body weight and food intake weight before administration), with body weight changes expressed as percentages (baseline was 100%).

[4] = pharmacokinetics in crab-eating macaques; format: in vivo; conditions: male crab-eating macaque, 0.246 mg/kg single s.c., plasma
Experimental: (§1) Blood samples were collected from each animal at each time point after administration, and the blood samples were centrifuged at around 4° C., 3200 g, for 10 minutes. Plasma was collected separately, transferred to pre-labeled 96-well plates or polypropylene tubes, speedily frozen on dry ice, and stored at −60° C. or lower until LC-MS/MS analysis.
(§2) LC-MS/MS method was adopted to determine the concentration of the measured analogues in blood samples. The data on the changes in plasma concentration over time were plotted into a chart and analyzed using non partitioned methods with Phoenix WinNonlin 6.3 software program. Relevant PK parameters were calculated based on the administration routes.
The plasma pharmacokinetics of PYY analogues in male crab-eating macaques were evaluated after a single subcutaneous administration of 0.246 mg/kg Analogue 3. Blood samples were collected from 2 crab-eating macaques at each time point after administration for 1 h, 2 h, 4 h, 8 h, 12 h, 24 h, 48 h, 72 h, 96 h, 120 h, 144 h, 168 h, 192 h, 240 h, 288 h, 336 h, 408 h, 504 h, extending to 504 hours. Due to the use of discontinuous sampling to evaluate the kinetics of PYY analogues in crab-eating macaques, the pharmacokinetic parameters of Analogue 3 after a single subcutaneous administration of 0.246 mg/kg were listed using average concentration-time data.

[5] = pharmacokinetics in SD rats; format: in vivo; conditions: male rat, 0.492 mg/kg single s.c., plasma
Experimental: as §1, §2
The plasma pharmacokinetics of PYY analogues in male SD rats were evaluated after a single subcutaneous administration of 0.492 mg/kg Analogue 3. Blood samples were collected from 3 rats at each time point after administration for 0.5 h, 1 h, 2 h, 4 h, 8 h, 12 h, 16 h, 24 h, 48 h, 72 h, 96 h, 120 h, 144 h, 168 h, extending to 168 h. Due to the use of discontinuous sampling to evaluate the kinetics of PYY analogues in rats, the pharmacokinetic parameters of Analogue 3 after a single subcutaneous administration of 0.492 mg/kg were listed using average concentration-time data.

[6] = target: T3, human Y5 receptor (hNPY5R) (Homo sapiens, UniProt Q15761); test: calcium flux (FLIPR) assay, functional activity on human Y5 receptor; conditions: read-out: hNPY5R EC50, average, at least 3 independent tests
T3 sequence (Q15761 1-445): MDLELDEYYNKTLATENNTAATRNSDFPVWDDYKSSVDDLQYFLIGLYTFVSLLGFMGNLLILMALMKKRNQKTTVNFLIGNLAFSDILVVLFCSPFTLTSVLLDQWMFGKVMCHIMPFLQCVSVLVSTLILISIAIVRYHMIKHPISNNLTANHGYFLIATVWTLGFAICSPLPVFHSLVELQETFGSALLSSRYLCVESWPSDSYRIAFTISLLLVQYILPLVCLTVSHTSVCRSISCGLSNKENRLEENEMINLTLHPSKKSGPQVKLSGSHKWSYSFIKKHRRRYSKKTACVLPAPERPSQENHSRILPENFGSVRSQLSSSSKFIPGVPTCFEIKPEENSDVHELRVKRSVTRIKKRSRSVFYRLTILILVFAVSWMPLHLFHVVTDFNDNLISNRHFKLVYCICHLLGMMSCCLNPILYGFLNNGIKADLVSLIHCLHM
Experimental: as §3, §4, §5, §6, §7, §8

- EC50 [1]: 0.041 nM
- EC50 [2]: > 50 nM
Substance: PKPEK(AEEAc-γGlu-CO(CH2)16COOH)PEED-Aib-SPEEWQRYY-Aib-SLRHYLNWLTRQRY-NH2 [Analogue 1]
- Accumulated food intake weight ([3]; 3 nmol/kg single s.c.): 11.54 ± 0.40 g
- Body weight changes ([3]; 3 nmol/kg single s.c.): 2.32% ± 2.53%
- Accumulated food intake weight ([3]; 10 nmol/kg single s.c.): 9.29 ± 0.27 g
- Body weight changes ([3]; 10 nmol/kg single s.c.): 1.23% ± 2.92%
- Accumulated food intake weight ([3]; 30 nmol/kg single s.c.): 8.10 ± 0.26 g
- Body weight changes ([3]; 30 nmol/kg single s.c.): 0.51% ± 2.56%

Substance: PKPEK(AEEAc-γGlu-CO(CH2)16COOH)PE-Aib-DASPEEWQRYY-Aib-ELRHYLNWLTRQRY-NH2 [Analogue 3]
- EC50 [1]: 0.037 nM
- AUCinf [4]: 336.537 µg·h/mL
- Cmax [4]: 1775 ng/mL
- T1/2 [4]: 125.5 h
- Tmax [4]: 12 h
- AUCinf [5]: 79.609 µg·h/mL
- Cmax [5]: 1941 ng/mL
- T1/2 [5]: 24.7 h
- Tmax [5]: 13.3 h
- EC50 [6]: 92.7 nM
- EC50 [2]: > 50 nM
- Accumulated food intake weight ([3]; 3 nmol/kg single s.c.): 9.73 ± 0.48 g
- Body weight changes ([3]; 3 nmol/kg single s.c.): −1.04% ± 2.02%
- Accumulated food intake weight ([3]; 10 nmol/kg single s.c.): 8.24 ± 0.27 g
- Body weight changes ([3]; 10 nmol/kg single s.c.): −0.69% ± 1.64%
- Accumulated food intake weight ([3]; 30 nmol/kg single s.c.): 6.24 ± 0.26 g
- Body weight changes ([3]; 30 nmol/kg single s.c.): −6.52% ± 1.37%
